Assay results reported in patent US20250241876A1, “ANTI-TUMOR COMPOUNDS AND METHODS OF USE THEREOF AND SYNTHESIS THEREOF” (Atossa Therapeutics, Inc., priority 2023, published 2025).

What was measured:
Format in all cases: cell-based
[1] = system: T47D cells with Y537S or D538G mutations; test: Proliferation, T47D ESR1 mutants
Source text: (§1) Approximately 80% of breast cancers express estrogen receptor alpha (ERα, ESR1) which drives cancer progression. […] (Z)-Endoxifen (ENDX), an active metabolite of tamoxifen, is a potent orally bioavailable selective estrogen receptor modulator with a favorable safety profile now under development for breast health applications. Its synthesis yields endoxifen-related byproduct new chemical entities (NCE), including Compound 7b, Compound 7a, Compound 5b and Compound 5a. This study compared the anti-estrogenic effects of these compounds to (Z)-endoxifen in ERα+ breast cancer cell lines (MCF7, T47D, UCD12), including those with ESR1 mutations (Y537S, D538G) linked to endocrine resistance.

T47D cells [2] = test: Apoptosis induction, T47D, Example 29; conditions: for apoptosis induction in T47D cells: p<0.0001 vs. vehicle
[3] = system: ERα+ breast cancer cell lines; test: RT-qPCR analysis; conditions: 0.1 μM
[4] = system: ERα+ breast cancer cell lines (MCF7, T47D, UCD12), including those with ESR1 mutations (Y537S, D538G); test: 2D culture proliferation, all lines, Example 29; conditions: 2D cultures, estrogen-containing media, 0.02-5 μM, across all lines; p<0.0001 vs. vehicle
Source text: as §1

MCF7 cells [5] = test: 2D culture proliferation, MCF7; conditions: 2D cultures, estrogen-containing media
Source text: as §1

[6] = system: ERα+ breast cancer cell lines in 3D cultures; test: 3D culture cancer cell proliferation; conditions: ~1 μM
Source text: as §1

UCD12 cells = test: 2D culture proliferation, UCD12; conditions: 2D cultures, estrogen-containing media
Source text: as §1

[7] = system: ERα+ breast cancer cell lines; test: Cell cycle arrest, Example 29
Source text: as §1

T47D cells [8] = test: Migration and invasion inhibition assays, T47D; conditions: p<0.0001
T47D cells [9] = test: Anti-invasion (scratch wound) assay, Example 25; conditions: 1.25, 2.5, 5 μM
Source text: This example covers anti-invasion, apoptosis, and toxicity assays for various endoxifen-related compounds against multiple cancer cell lines. FIGS. 90A-F are plots that summarize results of proliferation assays for multiple cancer cell lines (MCF7, T47D, UCD4, and UCD12) in the presence of varying doses of endoxifen and multiple endoxifen-related compounds. FIGS. 91A-C are plots that summarize results of wound confluence measurements from scratch wound assays on T47D cells in the presence of 1.25 μM (FIG. 91A), 2.5 μM (FIG. 91B), and 5 μM (FIG. 91C) endoxifen and multiple endoxifen-related compounds. FIGS. 92A-C are plots that summarize results of wound density measurements from scratch wound assays on T47D cells in the presence of 1.25 μM (FIG. 92A), 2.5 μM (FIG. 92B), and 5 μM (FIG. 92C) endoxifen and multiple endoxifen-related compounds. FIGS. 93A-C are plots that summarize results of wound confluence measurements from scratch wound assays on MCF7 cells in the presence of 1.25 μM (FIG. 93A), 2.5 μM (FIG. 93B), and 5 μM (FIG. 93C) endoxifen and multiple endoxifen-related compounds. FIGS. 94A-C are plots that summarize results of wound density measurements from scratch wound assays on MCF7 cells in the presence of 1.25 μM (FIG. 94A), 2.5 μM (FIG. 94B), and 5 μM (FIG. 94C) endoxifen and multiple endoxifen-related compounds. […]

MCF7 cells [10] = test: Scratch-wound cell migration assay, Example 24, MCF7; conditions: highest dose examined (5 μM)
Protocol: (§2) This example covers cell migration assays with endoxifen and endoxifen-related compounds. Scratch-wound density and width measurements were tracked for 70 to 100 hours in MCF7 and T47D samples following treatment with a compound. […] FIG. 75 is a series of images of masked and unmasked wounds from the cell migration assays, with the rightmost figure showing invadopodia in cells within wound sites. In FIGS. 76-85, subfigure A is a plot of relative wound density, subfigure B is a plot of wound width, and subfigure C is a series of representative wound images from Day 3 or 4 of treatment. FIGS. 76-85 correspond to endoxifen treatment of MCF7 samples (FIG. 76), endoxifen treatment of T47D samples (FIG. 77), Compound 5b treatment of MCF7 samples (FIG. 78), Compound 5b treatment of T47D samples (FIG. 79), Compound 5a treatment of MCF7 samples (FIG. 80), Compound 5a treatment of T47D samples (FIG. 81), Compound 7b treatment of MCF7 samples (FIG. 82), Compound 7b treatment of T47D samples (FIG. 83), Compound 7a treatment of MCF7 samples (FIG. 84), and Compound 7a treatment of T47D samples (FIG. 85), respectively. […]
(§3) Migration inhibition was primarily detected at the highest tested dose (5 μM), which may be due to the fact that MCF7 and T47D cells are not migratory in nature under normal conditions. […]

T47D cells [11] = test: Scratch-wound cell migration assay, Example 24, T47D; conditions: highest dose examined (5 μM)
Protocol: as §2, §3

MCF7 cells [12] = test: Migration and invasion inhibition assays, MCF7; conditions: p<0.0001
[13] = system: estrogen-induced and ERα-mediated activation of an estrogen response element (ERE) luciferase reporter construct in ER+ T47D cells; test: Luciferase (ERE reporter) agonist/antagonist assay, ER+ cells; conditions: CSS+E2 media
T47D cancer cells = test: Cell migration (scratch-wound) assay, Example 20; conditions: high doses (FIGS. 58, 60, 62); 0 to 100 hours
Protocol: This example covers cell migration assays with endoxifen and multiple endoxifen-related compounds on T47D cancer cells. FIGS. 52A, 53A, 54A, 55A, and 56A are plots of relative wound density following treatment with vehicle or 0.02 to 6 μM endoxifen (FIG. 52A), Compound 5b (FIG. 53A), Compound 5a (FIG. 54A), Compound 7a (FIG. 55A), and Compound 7b (FIG. 56A) as a function of time (0 to 100 hours). FIGS. 52B, 53B, 54B, 55B, and 56B are plots of wound width following treatment with vehicle or 0.02 to 6 μM endoxifen (FIG. 52B), Compound 5b (FIG. 53B), Compound 5a (FIG. 54B), Compound 7a (FIG. 55B), and Compound 7b (FIG. 56B) as a function of time (0 to 100 hours). FIGS. 52C, 53C, 54C, 55C, and 56C are series of plots of individual replicates of relative wound density and wound width for endoxifen, Compound 5b, Compound 5a, Compound 7a, and Compound 7b, respectively. FIG. 57 is a plot of relative wound density over time (0 to 100 hours) for a wound treated with vehicle (DMSO), 5 μM endoxifen, 5 μM Compound 5b, and 5 μM Compound 5a. FIG. 58 is a plot of relative wound density over time (0 to 100 hours) for a wound treated with vehicle (DMSO), 5 μM endoxifen, 5 μM Compound 7a, and 5 μM Compound 7b. FIG. 59 is a plot of relative wound density over time (0 to 100 hours) for a wound treated with vehicle (DMSO), 2.5 μM endoxifen, 2.5 μM Compound 5b, and 2.5 μM Compound 5a. […]

T47D cells [14] = test: 2D culture proliferation, T47D; conditions: estrogen-deficient conditions
Source text: as §1

Row | SMILES | potency, ranking [1] | apoptosis induction in T47D cells, ranking (T47D cells [2]) | apoptosis induction in T47D cells (T47D cells [2]) | RT-qPCR analysis, potency ranking [3] | anti-proliferative effect, inhibition [4] | anti-proliferative effect, ranking (MCF7 cells [5]) | potency in 3D cultures, ranking [6] | anti-proliferative effect, ranking (UCD12 cells) | G1 cell cycle arrest [7] | migration and invasion inhibition compared with (Z)-endoxifen (T47D cells [8]) | potency at inhibiting the invasion of T47D cells compared with endoxifen (T47D cells [9]) | potency at inhibiting the migration and proliferation compared with endoxifen (MCF7 cells [10]) | potency at inhibiting the migration and proliferation compared with endoxifen (T47D cells [11]) | migration and invasion inhibition compared with (Z)-endoxifen (MCF7 cells [12]) | anti-proliferative effects in ER+ cells compared with endoxifen [13] | potency at inhibiting the migration and proliferation of T47D cells compared with endoxifen (T47D cancer cells) | anti-proliferative activity compared with (Z)-endoxifen (T47D cells [14])
1 | CC/C(=C(\c1ccc(O)cc1)c1ccc(OCCNC)cc1)c1ccccc1 [(Z)-endoxifen, (Z)-Endoxifen, reference compound] | most potent | superior activity | significantly induced | most potent | 20-90% | strongest effects | comparable, superior potency | strongest effects | most effective | – | – | – | – | – | – | – | –
2 | CC/C(=C(/c1ccc(O)cc1)c1ccc(OCCN(C)C(C)=O)cc1)c1ccccc1 [Compound 7b] | – | – | significantly induced | – | – | – | – | – | – | consistently outperformed (Z)-endoxifen | more potent than endoxifen | more potent than endoxifen | more potent than endoxifen | consistently outperformed (Z)-endoxifen | closely resemble that of endoxifen | greater potency than endoxifen | more effective
